“And” between values parts separate entries of the source, which are not always exact repeats. Identical values can stand only once. Like-named read-outs stand apart in the source and are kept apart here.

Common to all, as to format: cell-based
Assay [1] concerns a variety of fungi. Put plainly: Broth microdilution MIC/MID 50 against fungi. The settings on record: antifungal concentration. The protocol: The clinical and laboratory standards institute Broth Microdilution Methodology was employed, however, the growth medium used was an “RPMI” medium. Table 22c uses a format similar to that used for Table 22a, however, the test solutions were tested against a variety of fungi.
A general note: In broth dilution the organism is exposed to a series of concentrations in liquid medium.

In assay [2] the test system is Gram-Positive and Gram Negative bacteria.
Assay [3] relates to Trypanosoma b. rhodesiense STIB 900. Put plainly: Alamar Blue assay against Human African Trypanosomiasis parasites. As to the method: Minimum Essential Medium (50 μl) supplemented according to Baltz et al. (1985) with 2-mercaptoethanol and 15% heat-inactivated horse serum was added to each well of a 96-well microtiter plate.
Serial drug dilutions were prepared covering a range from 90 to 0.123 μg/ml.
Then 10^4 bloodstream forms of Trypanosoma b. rhodesiense STIB 900 in 50 μl were added to each well and the plate incubated at 37° C. under a 5% CO2 atmosphere for 72 hours.
10 μl of Alamar Blue (12.5 mg resazurin dissolved in 100 mL distilled water) were then added to each well and incubation continued for a further 2-4 hours.
Then the plates were read with a Spectramax Gemini XS microplate fluorometer (Molecular Devices Cooperation, Sunnyvale, Calif., USA) using an excitation wave length of 536 nm and an emission wave length of 588 nm.
Data were analysed using the software Softmax Pro (Molecular Devices Cooperation, Sunnyvale, Calif., USA). Decrease of fluorescence (=inhibition) was expressed as percentage of the fluorescence of control cultures and plotted against the drug concentrations.
From the sigmoidal inhibition curves the IC50 values were calculated.
(In general: Alamar Blue is a resazurin reagent that responds to reducing activity.)

Take `C[C@@H]1[C@H](O)[C@@H](C)/C=C/C=C/C=C/C=C/C=C/C=C/C=C/[C@H](O[C@@H]2O[C@H](C)[C@@H](O)[C@H](N)[C@@H]2O)C[C@@H]2O[C@](O)(C[C@@H](O)C[C@@H](O)[C@H](O)CC[C@@H](O)C[C@@H](O)CC(=O)O[C@H]1C)C[C@H](O)[C@H]2C(=O)O` [Amphotericin B]: the MID/MIC in assay [1] (ATCC 22019 Candida parapsilosis - 24 hrs) is 0.5 µg/mL; in assay [1] (ATCC 22019 Candida parapsilosis - 48 hrs §§ (24 hour read)), 1 µg/mL; in assay [1] (NCPF 118 Trichophyton rubrum 48 hrs §§ (24 hour read)), 0.5 µg/mL and 1 µg/mL; in assay [1] (NCPF 175 Trychophyton interdigitale 72 hrs §§ (24 hour read)), 2 µg/mL; in assay [1] (NCPF 177 *Microsporum canis - 72 hrs }} (required 72 hours incubation)), 0.12 µg/mL; in assay [1] (NCPF 224 Trichophyton mentagrophytes - 48 hrs §§ (24 hour read)), 2 µg/mL. Moreover, the MID/MIC came to 0.5 µg/mL in assay [1] (NCPF 436 *Microsporum audounii - 72 hrs }} (required 72 hours incubation)); 1 µg/mL in assay [1] (NCPF 988 *Microsporum ferrugineum - 72 hrs }} (required 72 hours incubation)); 2 µg/mL in assay [1] (NCPF 2140 Aspergiflus fumigatus - 48 hrs §§ (24 hour read)); 4 µg/mL in assay [1] (NCPF 2175 Aspergillus flavus - 48 hrs §§ (24 hour read)); 0.5 µg/mL in assay [1] (NCPF 2634 Rhizopus oligosporus - 24 hrs); 2 µg/mL in assay [1] (NCPF 2715 Penicillium chrysogenum 48 hrs §§ (24 hour read)). The MID/MIC was 1 µg/mL in assay [1] (NCPF 2722 Fusarium oxysporum - 48 hrs); 1 µg/mL in assay [1] (NCPF 2743 Mucor circinelloides - 48 hrs); 0.5 µg/mL in assay [1] (NCPF 3309 Candida glabrata - 24 hrs); 1 µg/mL in assay [1] (NCPF 3309 Candida glabrata - 48 hrs); 0.5 µg/mL in assay [1] (NCPF 3516 Candida lusitaniae - 24 hrs); 1 µg/mL in assay [1] (NCPF 3516 Candida lusitaniae - 48 hrs §§ (24 hour read)). In addition, the MID/MIC in assay [1] (NCPF 3853 Trichophyton cutaneum 48 hrs §§ (24 hour read)) was determined as 0.5 µg/mL; in assay [1] (NCPF 5011 Epidermophyton floccosum - 48 hrs), 0.25 µg/mL; in assay [1] (NCPF 7075 *Sporothrix schenkii - 72 hrs (required 72 hours incubation)), 1 µg/mL; in assay [1] (NCPF 7147 Alternaria altemata - 48 hrs §§ (24 hour read)) it was 1 µg/mL; in assay [1] (NIH 2624 Aspergillus terreus - 48 hrs §§ (24 hour read)), 2 µg/mL.
Regarding `CCC[C@@H]1C[C@@H](C(=O)N[C@@H]([C@H]2O[C@H](SC)[C@H](O)[C@@H](O)[C@H]2O)[C@H](C)Cl)N(C)C1` [Clindamycin], the “MID/MIC (amount of antibiotic)” value in assay [2] is ≤0.06 µg/mL; in assay [2] (CD01 Clostridium difficile, Brucella broth with 5% LHB, 1 μg/mL Vit K, 1 μg/mL Haemin) it was 4 µg/mL; in assay [2] (CD02 Clostridium difficile, Brucella broth with 5% LHB, 1 μg/mL Vit K, 1 μg/mL Haemin) it was 2 µg/mL; in assay [2] (CD03 Clostridium difficile, Brucella broth with 5% LHB, 1 μg/mL Vit K, 1 μg/mL Haemin), 2 µg/mL and 1 µg/mL; in assay [2] (CD04 Clostridium difficile, Brucella broth with 5% LHB, 1 μg/mL Vit K, 1 μg/mL Haemin), 1 µg/mL; in assay [2] (CD05 Clostridium difficile, Brucella broth with 5% LHB, 1 μg/mL Vit K, 1 μg/mL Haemin) it was 1 µg/mL. Further, the “MID/MIC (amount of antibiotic)” value in assay [2] (CD06 Clostridium difficile, Brucella broth with 5% LHB, 1 μg/mL Vit K, 1 μg/mL Haemin) was 1 µg/mL; in assay [2] (CD07 Clostridium difficile, Brucella broth with 5% LHB, 1 μg/mL Vit K, 1 μg/mL Haemin), 1 µg/mL; in assay [2] (CD08 Clostridium difficile, Brucella broth with 5% LHB, 1 μg/mL Vit K, 1 μg/mL Haemin), 0.5 µg/mL and 1 µg/mL; in assay [2] (CD09 Clostridium difficile, Brucella broth with 5% LHB, 1 μg/mL Vit K, 1 μg/mL Haemin), 1 µg/mL and 2 µg/mL; in assay [2] (GN10 Pseudomonas aeruginosa ATCC27853, antibiotic-susceptible type strain), 1 µg/mL; in assay [2] (GN32 Acinetobacter baumanii, multi-drug resistant clinical isolate) it was 50.06 µg/mL. Further, the “MID/MIC (amount of antibiotic)” value in assay [2] (P8119035 Citrobacter freundii, resistant clinical isolate) came to 4 µg/mL.
As for `Nc1nc(N)nc(Nc2ccc([As]3SCC(CO)S3)cc2)n1` (stereo not shown) [Melarsoprol], the IC50 turned out to be 0.003 µg/mL in assay [3] (72 h, read-out: T.b. rhod. IC/50 Trial I); 0.002 µg/mL in assay [3] (72 h, read-out: T.b. rhod. IC/50 Trial III); 0.005 µg/mL in assay [3] (72 h, read-out: T.b. rhod. IC/50 Trial V); 0.00333 µg/mL in assay [3] (read-out: T.b. rhod. IC/50 Avg less 1 ng/ml).

For the origin of these results see patent US10441608B2, “Continuous methods for treating liquids and manufacturing certain constituents (e.g., nanoparticles) in liquids, apparatuses and nanoparticles and nanoparticle/liquid solution(s) resulting therefrom” (Clene Nanomedicine, Inc., priority 2009, dated 2019).
